# In patent US20220112187A1, “PYRAZOLOPYRIDINE AMINE COMPOUNDS FOR THE TREATMENT OF AUTOIMMUNE DISEASE” (Hoffmann-La Roche Inc., priority 2018, published 2022):
# Molecular target: T1, human TLR7 (Homo sapiens, UniProt Q9NYK1)
# T1 sequence (Q9NYK1 27-1049): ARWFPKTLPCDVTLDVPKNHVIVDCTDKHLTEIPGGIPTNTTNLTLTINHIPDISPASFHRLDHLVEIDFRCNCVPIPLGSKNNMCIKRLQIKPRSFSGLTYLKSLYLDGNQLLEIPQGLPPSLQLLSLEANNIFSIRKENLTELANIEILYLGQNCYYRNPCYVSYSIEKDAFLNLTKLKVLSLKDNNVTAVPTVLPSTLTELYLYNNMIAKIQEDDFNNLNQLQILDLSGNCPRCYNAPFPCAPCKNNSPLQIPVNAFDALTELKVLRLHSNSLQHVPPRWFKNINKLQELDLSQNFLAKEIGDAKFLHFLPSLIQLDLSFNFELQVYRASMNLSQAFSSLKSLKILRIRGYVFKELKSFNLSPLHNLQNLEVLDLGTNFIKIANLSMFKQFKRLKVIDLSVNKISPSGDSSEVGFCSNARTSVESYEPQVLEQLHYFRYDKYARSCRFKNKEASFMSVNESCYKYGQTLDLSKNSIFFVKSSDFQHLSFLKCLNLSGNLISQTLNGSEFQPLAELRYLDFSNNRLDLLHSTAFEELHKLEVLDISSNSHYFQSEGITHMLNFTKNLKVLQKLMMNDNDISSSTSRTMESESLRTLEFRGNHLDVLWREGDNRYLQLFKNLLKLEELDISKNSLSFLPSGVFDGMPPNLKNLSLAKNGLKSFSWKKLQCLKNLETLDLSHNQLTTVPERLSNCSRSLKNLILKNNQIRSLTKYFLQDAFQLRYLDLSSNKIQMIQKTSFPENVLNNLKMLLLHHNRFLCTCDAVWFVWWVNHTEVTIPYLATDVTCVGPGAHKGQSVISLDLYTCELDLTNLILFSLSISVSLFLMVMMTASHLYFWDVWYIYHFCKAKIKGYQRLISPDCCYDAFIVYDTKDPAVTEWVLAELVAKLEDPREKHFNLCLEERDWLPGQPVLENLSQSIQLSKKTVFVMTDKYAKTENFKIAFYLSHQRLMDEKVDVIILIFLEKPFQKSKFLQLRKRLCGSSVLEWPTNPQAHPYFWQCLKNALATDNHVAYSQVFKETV
# Test: HEK293-Blue-hTLR-7 cells assay (SEAP reporter, R848 stimulation)
# Assay type: cell-based
# Conditions: HEK293-Blue-hTLR7 cells, R848 ligand, 20 hrs incubation
# From the text: A stable HEK293-Blue-hTLR-7 cell line was purchased from InvivoGen (Cat. #: hkb-htlr7, San Diego, Calif., USA). These cells were originally designed for studying the stimulation of human TLR7 by monitoring the activation of NF-κB. A SEAP (secreted embryonic alkaline phosphatase) reporter gene was placed under the control of the IFN-β minimal promoter fused to five NF-κB and AP-1-binding sites. The SEAP was induced by activating NF-κB and AP-1 via stimulating HEK-Blue hTLR7 cells with TLR7 ligands. Therefore the reporter expression was declined by TLR7 antagonist under the stimulation of a ligand, such as R848 (Resiquimod), for incubation of 20 hrs. The cell culture supernatant SEAP reporter activity was determined using QUANTI-Blue™ kit (Cat. #: rep-qb1, Invivogen, San Diego, Ca, USA) at a wavelength of 640 nm, a detection medium that turns purple or blue in the presence of alkaline phosphatase.
# HEK293-Blue-hTLR7 cells were incubated at a density of 250,000˜450,000 cells/mL in a volume of 170 μL in a 96-well plate in Dulbecco's Modified Eagle's medium (DMEM) containing 4.5 g/L glucose, 50 U/mL penicillin, […], […], 2 mM L-glutamine, 10% (v/v) heat-inactivated fetal bovine serum with addition of 20 μL test compound in a serial dilution in the presence of final DMSO at 1% and 10 μL of 20 uM R848 in above DMEM, perform incubation under 37° C. in a CO2 incubator for 20 hrs. Then 20 μL of the supernatant from each well was incubated with 180 μL Quanti-blue substrate solution at 37° C. for 2 hrs and the absorbance was read at 620˜655 nm using a spectrophotometer. The signalling pathway that TLR7 activation leads to downstream NF-κB activation has been widely accepted, and therefore similar reporter assay was modified for evaluating TLR7 antagonist.
row,IC50 [nM],Compound
1,680,"C[C@@H]1CN(c2ccc(C#N)n3nccc23)C[C@H](CN2C[C@H]3CC[C@@H](N(C)C)[C@H]3C2)O1 (racemic) [Example 75, 4-[(2S,6R)-2-[[4-(dimethylamino)-3,3a,4,5,6,6a-hexahydro-1H-cyclopenta[c]pyrrol-2-yl]methyl]-6-methyl-morpholin-4-yl]pyrazolo[1,5-a]pyridine-7-carbonitrile]"
2,230,"CC1CNCCN1C[C@H]1CN(c2ccc(C#N)n3nccc23)C[C@@H](C)O1 (single isomer, unassigned) [Example 50A]"
3,140,"CC1CNCCN1C[C@H]1CN(c2ccc(C#N)n3nccc23)C[C@@H](C)O1 (single isomer, unassigned) [Example 50B]"
4,95,"C[C@@H]1CN(c2ccc(C#N)n3nccc23)C[C@H](CN2CCC(N3CCN(C)CC3)CC2)O1 [Example 1, 4-[(2R,6S)-2-methyl-6-[[4-(4-methylpiperazin-1-yl)-1-piperidyl]methyl]morpholin-4-yl]pyrazolo[1,5-a]pyridine-7-carbonitrile]"
5,240,"C[C@@H]1CN(c2ccc(C#N)n3nccc23)C[C@H](CN2CCC3(CCNCC3)CC2)O1 [Example 3, 4-[(2S,6R)-2-(3,9-diazaspiro[5.5]undecan-3-ylmethyl)-6-methyl-morpholin-4-yl]pyrazolo[1,5-a]pyridine-7-carbonitrile]"
6,180,"C[C@@H]1CN(c2ccc(C#N)n3nccc23)C[C@H](CN2CCC(N3CCCCCC3)CC2)O1 [Example 4, 4-[(2S,6R)-2-[[4-(azepan-1-yl)-1-piperidyl]methyl]-6-methyl-morpholin-4-yl]pyrazolo[1,5-a]pyridine-7-carbonitrile]"
7,54,"C[C@@H]1CN(c2ccc(C#N)n3nccc23)C[C@H](CN2CCNCC2)O1 [Example 5, 4-[(2R,6S)-2-methyl-6-(piperazin-1-ylmethyl)morpholin-4-yl]pyrazolo[1,5-a]pyridine-7-carbonitrile]"
8,200,"C[C@@H]1CN(c2ccc(C#N)n3nccc23)C[C@H](CN2CCC3(CCNC3)C2)O1 (stereo partly drawn) [Example 6, 4-[(2S,6R)-2-(2,7-diazaspiro[4.4]nonan-2-ylmethyl)-6-methyl-morpholin-4-yl]pyrazolo[1,5-a]pyridine-7-carbonitrile]"
9,260,"C[C@@H]1CN(c2ccc(C#N)n3nccc23)C[C@H](CNC2CCN(C)CC2)O1 [Example 7, 4-[(2R,6S)-2-methyl-6-[[(1-methyl-4-piperidyl)amino]methyl]morpholin-4-yl]pyrazolo[1,5-a]pyridine-7-carbonitrile]"
10,83,"C[C@@H]1CN(c2ccc(C#N)n3nccc23)C[C@H](CN2CC3(CCCNC3)C2)O1 [Example 10, 4-[(2S,6R)-2-(2,8-diazaspiro[3.5]nonan-2-ylmethyl)-6-methyl-morpholin-4-yl]pyrazolo[1,5-a]pyridine-7-carbonitrile]"
11,160,"C[C@@H]1CN(c2ccc(C#N)n3nccc23)C[C@H](CN2CC3(CC(N)C3)C2)O1 [Example 11, 4-[(2S,6R)-2-[(6-amino-2-azaspiro[3.3]heptan-2-yl)methyl]-6-methyl-morpholin-4-yl]pyrazolo[1,5-a]pyridine-7-carbonitrile]"
12,240,"C[C@@H]1CN(c2ccc(C#N)n3nccc23)C[C@H](CN2CCC(CN)CC2)O1 [Example 12, 4-[(2S,6R)-2-[[4-(aminomethyl)-1-piperidyl]methyl]-6-methyl-morpholin-4-yl]pyrazolo[1,5-a]pyridine-7-carbonitrile]"
13,400,"C[C@@H]1CN(c2ccc(C#N)n3nccc23)C[C@H](CN2CCC(CCN)CC2)O1 [Example 13, 4-[(2S,6R)-2-[[4-(2-aminoethyl)-1-piperidyl]methyl]-6-methyl-morpholin-4-yl]pyrazolo[1,5-a]pyridine-7-carbonitrile]"
14,460,"C[C@@H]1CN(c2ccc(C#N)n3nccc23)C[C@H](CN2CCN(C(=O)CN)CC2)O1 [Example 14, 4-[(2S,6R)-2-[[4-(2-aminoacetyl)piperazin-1-yl]methyl]-6-methyl-morpholin-4-yl]pyrazolo[1,5-a]pyridine-7-carbonitrile]"
15,77,"C[C@@H]1CN(c2ccc(C#N)n3nccc23)C[C@H](CN2CCN(C)CC2)O1 [Example 15, 4-[(2R,6S)-2-methyl-6-[(4-methylpiperazin-1-yl)methyl]morpholin-4-yl]pyrazolo[1,5-a]pyridine-7-carbonitrile]"
16,100,"C[C@@H]1CN(c2ccc(C#N)n3nccc23)C[C@H](CN2CCC(N3CCCCC3)CC2)O1 [Example 16, 4-[(2R,6S)-2-methyl-6-[[4-(1-piperidyl)-1-piperidyl]methyl]morpholin-4-yl]pyrazolo[1,5-a]pyridine-7-carbonitrile]"
17,89,"C[C@@H]1CN(c2ccc(C#N)n3nccc23)C[C@H](CN2CCC(N)CC2)O1 [Example 17, 4-[(2S,6R)-2-[(4-amino-1-piperidyl)methyl]-6-methyl-morpholin-4-yl]pyrazolo[1,5-a]pyridine-7-carbonitrile]"
18,200,"C[C@@H]1CN(c2ccc(C#N)n3nccc23)C[C@H](CN2CCC3(CCNCC3)C2)O1 [Example 18, 4-[(2S,6R)-2-(2,8-diazaspiro[4.5]decan-2-ylmethyl)-6-methyl-morpholin-4-yl]pyrazolo[1,5-a]pyridine-7-carbonitrile]"
19,130,"C[C@@H]1CN(c2ccc(C#N)n3nccc23)C[C@H](CN2CCC3(CCNC3)CC2)O1 [Example 19, 4-[(2S,6R)-2-(2,8-diazaspiro[4.5]decan-8-ylmethyl)-6-methyl-morpholin-4-yl]pyrazolo[1,5-a]pyridine-7-carbonitrile]"
20,650,"C[C@@H]1CN(c2ccc(C#N)n3nccc23)C[C@H](CN2CC3(CCNC3)CC2=O)O1 (stereo partly drawn) [Example 20, 4-[(2R,6R)-2-methyl-6-[(3-oxo-2,7-diazaspiro[4.4]nonan-2-yl)methyl]morpholin-4-yl]pyrazolo[1,5-a]pyridine-7-carbonitrile]"
21,98,"C[C@@H]1CN(c2ccc(C#N)n3nccc23)C[C@H](CN2CCC3(CCNC3)C2=O)O1 (stereo partly drawn) [Example 21, 4-[(2R,6R)-2-methyl-6-[(1-oxo-2,7-diazaspiro[4.4]nonan-2-yl)methyl]morpholin-4-yl]pyrazolo[1,5-a]pyridine-7-carbonitrile]"
22,100,"C[C@@H]1CN(c2ccc(C#N)n3nccc23)C[C@H](CN2CC3CNCC3C2)O1 (stereo partly drawn) [Example 22, 4-[(2S,6R)-2-(2,3,3a,4,6,6a-hexahydro-1H-pyrrolo[3,4-c]pyrrol-5-ylmethyl)-6-methyl-morpholin-4-yl]pyrazolo[1,5-a]pyridine-7-carbonitrile]"
23,180,"C[C@@H]1CN(c2ccc(C#N)n3nccc23)C[C@H](CN2CCCC3(CCCNC3)C2)O1 (stereo partly drawn) [Example 23, 4-[(2S,6R)-2-(2,8-diazaspiro[5.5]undecan-2-ylmethyl)-6-methyl-morpholin-4-yl]pyrazolo[1,5-a]pyridine-7-carbonitrile]"
24,100,"C[C@@H]1CN(c2ccc(C#N)n3nccc23)C[C@H](CN2CC3(CCNCC3)C2)O1 [Example 24, 4-[(2S,6R)-2-(2,7-diazaspiro[3.5]nonan-2-ylmethyl)-6-methyl-morpholin-4-yl]pyrazolo[1,5-a]pyridine-7-carbonitrile]"
25,110,"C[C@@H]1CN(c2ccc(C#N)n3nccc23)C[C@H](CN2CCC3(CCCNC3)C2)O1 (stereo partly drawn) [Example 25, 4-[(2S,6R)-2-(2,9-diazaspiro[4.5]decan-2-ylmethyl)-6-methyl-morpholin-4-yl]pyrazolo[1,5-a]pyridine-7-carbonitrile]"
